Reference: paper PMC9317316, “Synthesis and Evaluation of Some New 4H-Pyran Derivatives as Antioxidant, Antibacterial and Anti-HCT-116 Cells of CRC, with Molecular Docking, Antiproliferative, Apoptotic and ADME Investigations” (Pharmaceuticals, 2022)
Several values for one entry are separate records, joined by “and”; a condition that tells them apart may be missing. Equal values may be shown once.

Tests used:
[1] = test system: S. aureus (ATCC 25923); experiment: Antibacterial viability (CFU) assay, IC50; assay type: cell-based; conditions: Staphylococcus aureus, ATCC25923
How it was run: (§1)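 IC50 values come from residual colony counts versus initial inoculum: cells at 2 ×10^7 CFU/mL in sterile BHI incubated with compound under shaking, 60 min, 37 °C, then plated for 24 h. Zone assays used agar diffusion with ampicillin (10 µg/well) control.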

[2] = test system: S. enteric (ATCC 43972); experiment: Antibacterial viability (CFU) assay, IC50; assay type: cell-based; conditions: read-out: IC50
How it was run: as §1

[3] = test system: K. pneumonia (ATCC 700603); experiment: Antibacterial viability (CFU) assay, IC50; assay type: cell-based; conditions: Klebsiella pneumoniae, ATCC700603
How it was run: as §1

[4] = test system: P. aeruginosa (ATCC 27853); experiment: Antibacterial viability (CFU) assay, IC50; assay type: cell-based; conditions: Pseudomonas aeruginosa, ATCC27853
How it was run: as §1

[5] = test system: E. coli (ATCC 25966); experiment: Antibacterial viability (CFU) assay, IC50; assay type: cell-based; conditions: Escherichia coli, ATCC25966; E. coil (ATCC 25966)
How it was run: as §1

[6] = test system: B. cereus (ATCC 14579); experiment: Antibacterial viability (CFU) assay, IC50; assay type: cell-based; conditions: Bacillus cereus, ATCC14579
How it was run: as §1

[7] = test system: S. epidermidis (ATCC 14990); experiment: Antibacterial viability (CFU) assay, IC50; assay type: cell-based; conditions: Staphylococcus epidermidis, ATCC14990
How it was run: as §1

[8] = test system: B. subtilis (ATCC 6633); experiment: Antibacterial viability (CFU) assay, IC50; assay type: cell-based; conditions: Bacillus subtilis, ATCC6633, B. subtilis (ATCC 6633)
How it was run: as §1

[9] = test system: E. faecalis (ATCC 29122); experiment: Antibacterial viability (CFU) assay, IC50; assay type: cell-based; conditions: Enterococcus faecalis, ATCC29122
How it was run: as §1

[10] = test system: S. aureus (ATCC 25923); experiment: Antibacterial agar diffusion method (inhibition zone); assay type: cell-based
How it was run: as §1

[11] = test system: K. pneumonia (ATCC 700603); experiment: as above; assay type: cell-based
How it was run: as §1

[12] = test system: P. aeruginosa (ATCC 27853); experiment: as above; assay type: cell-based
How it was run: as §1

[13] = test system: E. coli (ATCC 25966); experiment: as above; assay type: cell-based; conditions: E. coil (ATCC 25966)
How it was run: as §1

[14] = test system: B. cereus (ATCC 14579); experiment: as above; assay type: cell-based
How it was run: as §1

[15] = test system: S. epidermidis (ATCC 14990); experiment: as above; assay type: cell-based
How it was run: as §1

[16] = test system: B. subtilis (ATCC 6633); experiment: as above; assay type: cell-based
How it was run: as §1

[17] = test system: E. faecalis (ATCC 29122); experiment: as above; assay type: cell-based
How it was run: as §1

[18] = test system: CDK2 protein in HCT-116 cells; experiment: Quantitative determination of CDK2 concentration in HCT-116 cell lysates (Human CDK2 ELISA Kit); assay type: cell-based; conditions: for downregulation of CDK2 protein expression, fold: as compared to the negative control; for concentration of CDK2 in lysate of treated HCT-116 cells: negative control 7.466 ng/mL
Procedure: First, the commercial Human CDK2 ELISA Kit was used to estimate concentrations of the protein in the lysate of HCT-116 cells treated with 4d and 4k. The results were compared with the positive (cells treated with the reference CDK inhibitor, BMS-265246) and negative control experiments.
The in vitro quantitative measurement of concentration of CDK2 in lysates of HCT-116 cells was carried out using a commercial Human CDK2 ELISA Kit (cat. no.: LS-F22176; LifeSpan Biosciences Inc., Seattle, WA, USA) in the presence or absence of the studied compounds (4d and 4k), following the manufacturer’s instructions. Briefly, standards, blanks or samples were first incubated in the corresponding wells for 90 min at 37 °C. Then, biotinylated detection antibody was added to each well and the plate was incubated for 1 h at 37 °C followed by the addition of an Avidin–Horseradish Peroxidase (HRP) conjugate which binds to the biotin. After incubation of the mixture for 30 min at 37 °C, unbound Avidin–HRP conjugate was washed away and a TMB substrate was then added which reacts with the HRP enzyme, resulting in color development. After that, the reaction was stopped using a sulfuric acid stop solution to terminate the color-development reaction and the optical density of each well was measured using a microplate reader at 450 nm. BMS-265246 was used as the standard drug for inhibition of CDK2. All measurements were performed in triplicate.

[19] = DPPH radical scavenging assay; conditions: for IC50: 0.03 to 1 mg/mL, 1 h, mean ± SD, triplicate, read-out: IC50 (mM) for DPPH Scavenging Potency
How it was run: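 Ethanolic DPPH mixed with samples at 0.03 to 1 mg/mL, kept 1 h at room temperature in darkness, then absorbance read at 519 nm against compound-free control. Scavenging percentage computed as (1 − Acompound/Acontrol) × 100; IC50 interpolated from scavenging-versus-concentration plot.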

Structure (SMILES) | IC50 [1] | IC50 [2] | IC50 [3] | IC50 [4] | IC50 [5] | IC50 [6] | IC50 [7] | IC50 [8] | IC50 [9] | IZ (mm) [10] | IZ (mm) [11] | IZ (mm) [12] | IZ (mm) [13] | IZ (mm) [14] | IZ (mm) [15] | IZ (mm) [16] | IZ (mm) [17] | downregulation of CDK2 protein expression, fold [18] | concentration of CDK2 in lysate of treated HCT-116 cells [18] | IC50 [19] | also measured
COc1cc(C2C(C#N)=C(N)OC(C)=C2C(=O)OCc2ccccc2)cc(OC)c1OC (stereo not drawn) [4d, 6-Amino-5-cyano-2-methyl-4-(3,4,5-trimethoxy-phenyl)-4H-pyran-3-carboxylic acid benzyl ester] | 24.4 ± 1.15 µM | 65.8 ± 2.29 µM | 72.63 ± 0.69 µM | 67.4 ± 1.37 µM | 88.7 ± 2.52 µM | 39.5 ± 0.8 µM | 26.7 ± 1.15 µM | 40.3 ± 1.95 µM | 29.1 ± 2.27 µM | 9.00 mm and 9.00 ± 1.41 mm | 4.5 ± 0.7 mm | 6.5 ± 0.7 mm | 3.5 ± 0.71 mm | 9.50 ± 0.71 mm | 8.50 ± 0.71 mm | 12.00 ± 1.41 mm | 14.50 mm and 14.50 ± 0.71 mm | 1.9 fold | 4.634 ng/mL | 0.504 ± 0.032 mM | DPPH Radical Scavenging Effenciency (%) at 1 mg/mL [19]: 65.25% and 65.25 ± 1.77%
CC1=C(C(=O)OCc2ccccc2)C(c2ccc(C#N)cc2)C(C#N)=C(N)O1 (stereo not drawn) [4k, 6-Amino-5-cyano-4-(4-cyano-phenyl)-2-methyl-4H-pyran-3-carboxylic acid benzyl ester] | 43.9 ± 0.57 µM | 75.5 ± 2.42 µM | 77.8 ± 2.96 µM | 73.2 ± 3.5 µM | 80.2 ± 4.31 µM | 48.1 ± 1.35 µM | 50.2 ± 2.48 µM | 42.1 ± 2.48 µM | 45.4 ± 0.57 µM | 5.75 ± 0.35 mm | 2.5 ± 0.7 mm | 3.5 ± 0.7 mm | 4.5 ± 0.71 mm | 7.00 ± 1.41 mm | 4.50 ± 0.71 mm | 4.50 ± 0.71 mm | 5.50 ± 0.71 mm | 1.6 fold | 3.932 ng/mL | 1.05 ± 0.075 mM | DPPH Radical Scavenging Effenciency (%) at 1 mg/mL [19]: 40.55 ± 2.19%
